Results as given in ChEMBL document CHEMBL4130627, “Prodrugs of the Phosphoribosylated Forms of Hydroxypyrazinecarboxamide Pseudobase T-705 and Its De-Fluoro Analogue T-1105 as Potent Influenza Virus Inhibitors” (J Med Chem, 2018).
pEC50, pIC50: −log10 of the molar value. The source made the active and inactive calls. The calls are words filed in the database; no cut-off is given here.

Columns and labels:
Influenza B virus [1] = experiment: microbe, parasite or virus in culture; settings: Ned/537/05, MDCK, 72 h
Description: Antiviral activity against Influenza virus B/Ned/537/05 infected in MDCK cells assessed as reduction in viral replication at 3 days post infection by formazan-based MTS assay

[2] = Cytotoxicity against MDCK cells assessed as change in cell morphology after 3 days by microscopic analysis; assay type: cell-based, Canis lupus familiaris; settings: dog
Influenza A virus [3] = experiment: microbe, parasite or virus in culture; settings: MDCK, 72 h
Description: Antiviral activity against Influenza virus A/X-31 infected in MDCK cells assessed as reduction in viral replication at 3 days post infection by formazan-based MTS assay

Influenza B virus [4] = experiment: microbe, parasite or virus in culture; settings: Ned/537/05, MDCK, 72 h; remark: listed apart in the source
Description: Antiviral activity against Influenza virus B/Ned/537/05 infected in MDCK cells assessed as reduction in viral replication at 3 days post infection by microscopic analysis

[5] = Cytotoxicity against HGPRT deficient 6-thioguanine-resistant MDCK cells assessed as change in cell morphology after 3 days by microscopic analysis; assay type: cell-based, Canis lupus familiaris; settings: dog
Influenza A virus [6] = experiment: microbe, parasite or virus in culture; settings: MDCK, 72 h; remark: listed apart in the source
Description: Antiviral activity against Influenza virus A/X-31 infected in MDCK cells assessed as reduction in viral replication at 3 days post infection by microscopic analysis

[7] = Cytotoxicity against MDCK cells assessed as reduction in cell viability after 3 days by formazan-based MTS assay; parameters: species or system Canis lupus familiaris; settings: dog
[8] = Half life of the compound in 25 mM phosphate buffe at pH 1.5 to 7.3 by RP-HPLC analysis; assay type: physicochemical; settings: phosphate buffer
[9] = Inhibition of Influenza virus A/X-31 RNA dependent RNA polymerase using ApG primer [adenyl (3'-5') guanosine] and [8-3H]GTP after 1 hr by filter-based assay; parameters: species or system Influenza A virus (A/X-31(H3N2))
MDCK [10] = experiment: Prodrug activation in HGPRT deficient MDCK cells assessed as T-1105-RMP formation at 465 uM after 1 to 840 mins by RP-HPLC-UV analysis; assay type: cell-based, Canis lupus familiaris; settings: dog
[11] = Inhibition of Influenza virus B/Ned/537/05 RNA dependent RNA polymerase using ApG primer [adenyl (3'-5') guanosine] and [8-3H]GTP after 1 hr by filter-based assay
MDCK [12] = experiment: Prodrug activation in MDCK cells assessed as T-1105-RMP formation at 465 uM after 1 to 840 mins by RP-HPLC-UV analysis; assay type: cell-based, Canis lupus familiaris; settings: dog
MDCK [13] = experiment: Prodrug activation in MDCK cells assessed as T-1105-RDP formation at 500 uM after 2 hrs by RP-HPLC-UV analysis; assay type: cell-based, Canis lupus familiaris; settings: dog
MDCK [14] = experiment: Prodrug activation in MDCK cells assessed as T-1105-RMP formation at 450 uM up to 4 hrs by RP-HPLC-UV analysis; assay type: cell-based, Canis lupus familiaris; settings: dog
[15] = Drug metabolism in MDCK cells assessed as 4-((((((2R,3S,4R,5R)-5-(3-carbamoyl-2-oxopyrazin-1(2H)-yl)-3,4-dihydroxytetrahydrofuran-2-yl)methoxy)(hydroxy)phosphoryloxy)(hydroxy)phosphoryloxy)methyl)phenyl decanoate formation at 450 uM up to 4 hrs by RP-HPLC-UV analysis; assay type: ADME, cell-based, Canis lupus familiaris; settings: dog
[16] = Drug metabolism in MDCK cells assessed as T-1105-RDP formation at 450 uM up to 4 hrs by RP-HPLC-UV analysis; assay type: ADME, cell-based, Canis lupus familiaris; settings: dog
MDCK [17] = assay type: cell-based, Canis lupus familiaris; settings: dog, 2 h, 500 µM
MDCK [18] = experiment: Prodrug activation in MDCK cells assessed as T-1105-RTP formation at 450 uM up to 4 hrs by RP-HPLC-UV analysis; assay type: cell-based, Canis lupus familiaris; settings: dog
[19] = Prodrug activation in phosphate buffer at pH 7.3 assessed as metabolite formation after 30 hrs by RP-HPLC chromatogram analysis; assay type: physicochemical; settings: pH 7.3, 30 h
Liver carboxylesterase [20] = target: T1, Liver carboxylesterase (Sus scrofa, UniProt Q29550); experiment: Prodrug activation assessed as pig liver esterase mediated metabolite formation after 30 hrs by RP-HPLC chromatogram analysis; assay type: ADME; settings: isolated protein
T1 sequence (Q29550 whole entry): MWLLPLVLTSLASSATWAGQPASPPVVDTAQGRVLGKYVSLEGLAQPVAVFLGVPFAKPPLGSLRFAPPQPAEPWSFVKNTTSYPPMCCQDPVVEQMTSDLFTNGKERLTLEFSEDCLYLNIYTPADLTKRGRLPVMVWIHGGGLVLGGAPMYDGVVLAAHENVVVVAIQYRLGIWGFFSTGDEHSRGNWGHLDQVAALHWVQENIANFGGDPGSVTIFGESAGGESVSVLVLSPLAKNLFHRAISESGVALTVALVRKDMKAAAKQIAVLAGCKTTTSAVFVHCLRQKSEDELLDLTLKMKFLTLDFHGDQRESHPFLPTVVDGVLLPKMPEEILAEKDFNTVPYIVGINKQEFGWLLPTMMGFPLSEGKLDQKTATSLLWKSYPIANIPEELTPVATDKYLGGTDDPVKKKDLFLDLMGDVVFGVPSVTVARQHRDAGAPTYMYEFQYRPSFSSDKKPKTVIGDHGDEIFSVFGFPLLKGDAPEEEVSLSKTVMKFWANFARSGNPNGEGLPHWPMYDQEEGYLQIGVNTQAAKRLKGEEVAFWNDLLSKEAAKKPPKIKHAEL

[21] = Stability of the compound in phosphate buffer at pH 7.3 after 30 hrs by RP-HPLC chromatogram analysis; assay type: physicochemical; settings: pH 7.3, 30 h
Liver carboxylesterase [22] = target: T1, Liver carboxylesterase; experiment: Drug metabolism assessed as pig liver esterase mediated 4-((((((2R,3S,4R,5R)-5-(3-carbamoyl-5-fluoro-2-oxopyrazin-1(2H)-yl)-3,4-dihydroxytetrahydrofuran-2-yl)methoxy)(hydroxy)phosphoryloxy)(hydroxy)[…])methyl)phenyl pentanoate formation at 450 uM after 2 hrs by RP-HPLC chromatogram analysis; assay type: ADME; settings: isolated protein
[23] = Prodrug activation in phosphate buffer at pH 7.3 assessed as half life for T-1105-RMP formation up to 332 hrs by RP-HPLC-UV analysis; assay type: physicochemical; settings: pH 7.3, 332 h
MDCK [24] = experiment: Prodrug activation in MDCK cells assessed as parent compound remaining at 714 uM after 25 hrs by RP-HPLC-UV analysis; assay type: cell-based, Canis lupus familiaris; settings: dog
MDCK [25] = assay type: cell-based, Canis lupus familiaris; settings: dog, 714 µM
MDCK [26] = experiment: Prodrug activation in MDCK cells assessed as T-705-RMP formation at 714 uM after 25 hrs by RP-HPLC-UV analysis; assay type: cell-based, Canis lupus familiaris; settings: dog
Liver carboxylesterase [27] = target: T1, Liver carboxylesterase; experiment: Drug metabolism assessed as pig liver esterase mediated 4-(((((((2R,3S,4R,5R)-5-(3-carbamoyl-2-oxopyrazin-1(2H)-yl)-3,4-dihydroxytetrahydrofuran-2-yl)methoxy)(hydroxy)phosphoryloxy)(hydroxy)phosphoryloxy)(hydroxy)phosphoryloxy)methyl)phenyl decanoate formation at 450 uM after 1 to 8 hrs by RP-HPLC-UV analysis; assay type: ADME; settings: isolated protein
Influenza A virus [28] = assay type: functional, organism-based; settings: Influenza A virus (A/X-31(H3N2)); MDCK; 100 uM
Influenza A virus [29] = assay type: functional, organism-based; settings: Influenza A virus (A/X-31(H3N2)); MDCK; 250 uM
Influenza A virus [30] = assay type: functional, organism-based; settings: Influenza A virus (A/X-31(H3N2)); MDCK; 250 uM; remark: listed apart in the source

Row | Structure (SMILES) | pEC50 (Influenza B virus [1]) | MCC at 72 h [2] [µM] | pEC50 (Influenza A virus [3]) | pEC50 (Influenza B virus [4]) | MCC at 72 h [5] [µM] | pEC50 (Influenza A virus [6]) | CC50 at 72 h [7] [µM] | pIC50 [9] | also measured
1 | CC(=O)O[C@@H]1[C@H](OC(C)=O)[C@@H](COP2(=O)OCc3cccc(C)c3O2)O[C@H]1n1ccnc(C(N)=O)c1=O (some centres not stated) | 3.89 | 400 | < 3.40 | < 3.40 | 400 | < 3.40 | > 400 |  | 
2 | Nc1ncnc2c1ncn2[C@H]1CC[C@@H](COP2(=O)OCc3ccccc3O2)O1 (some centres not stated) |  |  |  |  |  |  |  |  | half-life [8]: 600 to 2700 min
3 | NC(=O)c1nccn([C@@H]2O[C@H](COP(=O)(O)OP(=O)(O)OP(=O)(O)O)[C@@H](O)[C@H]2O)c1=O |  |  |  |  |  |  |  | 5.01 to 6.32 | Drug metabolism (MDCK [10]): Metabolite_Detected; pIC50 [11]: 6.16; Drug metabolism (MDCK [12]): Metabolite_Detected
4 | NC(=O)c1nc(F)cn([C@@H]2O[C@H](COP(=O)(O)OP(=O)(O)OP(=O)(O)O)[C@@H](O)[C@H]2O)c1=O |  |  |  |  |  |  |  | 5.57 | pIC50 [11]: 5.57
5 | Nc1nc2c(ncn2[C@@H]2O[C@H](COP(=O)(O)OP(=O)(O)OP(=O)(O)O)C[C@H]2O)c(=O)[nH]1 |  |  |  |  |  |  |  | 4.80 | 
6 | Nc1nc2c(ncn2[C@@H]2O[C@H](COP(=O)(O)OP(=O)(O)OP(=O)(O)O)[C@@H](O)[C@H]2F)c(=O)[nH]1 |  |  |  |  |  |  |  | 5.60 | pIC50 [11]: 5.36
7 | CCCCCCCCCCCCCCC(=O)Oc1ccc(COP(=O)(OCc2ccc(OC(=O)CCCC)cc2)OP(=O)(O)OC[C@H]2O[C@@H](n3ccnc(C(N)=O)c3=O)[C@H](O)[C@@H]2O)cc1.CCN(CC)CC (some centres not stated) | 6.24 | 21 | 5.80 | 6.17 | 16 | 5.82 | 31 | 3.90 to 4.31 | Drug metabolism (MDCK [13]): Metabolite_Detected; Drug metabolism (MDCK [14]): Metabolite_Detected; Drug metabolism [15]: Metabolite_Detected; Drug metabolism [16]: Metabolite_Detected; Drug metabolism (MDCK [17]): Metabolite_Detected; pIC50 [11]: 3.90 to 4.31; Drug metabolism (MDCK [18]): Metabolite_Notdetected
8 | NC(=O)c1ncn([C@@H]2O[C@H](CO)[C@@H](O)[C@H]2O)n1 [RIBAVIRIN] | 5.35 | 59 | 4.89 | 5.23 | 35 |  | > 100 |  | 
9 | CCCCCCCCCCCCCCC(=O)Oc1ccc(COP(=O)(OCc2ccc(OC(=O)CCCC)cc2)OP(=O)(O)OP(=O)(O)OC[C@H]2O[C@@H](n3ccnc(C(N)=O)c3=O)[C@H](O)[C@@H]2O)cc1.CCN(CC)CC.CCN(CC)CC (some centres not stated) | 5.22 | 16 | 5.17 | 5.00 | 16 | 5.22 | 38 |  | Drug metabolism (MDCK [13]): Metabolite_Detected; Drug metabolism (MDCK [14]): Metabolite_Detected; Drug metabolism [15]: Metabolite_Detected; Drug metabolism [16]: Metabolite_Detected; Drug metabolism (MDCK [17]): Metabolite_Detected; Drug metabolism (MDCK [18]): Metabolite_Notdetected
10 | CCCCCCCCCCCCCCC(=O)Oc1ccc(COP(=O)(OCc2ccc(OC(=O)CCCC)cc2)OP(=O)(O)OC[C@H]2O[C@@H](n3cc(F)nc(C(N)=O)c3=O)[C@H](O)[C@@H]2O)cc1.CCN(CC)CC (some centres not stated) | 5.46 | 21 | 5.00 | 5.14 | 16 | 5.27 | 35 |  | Drug metabolism [19]: Metabolite_Notdetected; Drug metabolism (Liver carboxylesterase [20]): Metabolite_Notdetected; Stability [21]: Unstable; Drug metabolism (Liver carboxylesterase [22]): Metabolite_Detected
11 | CC(C)(C)c1cc2c(c(C(C)(C)C)c1)OP(=O)(OC[C@H]1O[C@@H](n3ccnc(C(N)=O)c3=O)[C@H](O)[C@@H]1O)OC2 (some centres not stated) |  |  |  |  |  |  |  |  | t1/2 [23]: 16 h
12 | Cc1cccc2c1OP(=O)(OC[C@@H]1CC[C@H](n3cnc4c(=O)[nH]cnc43)O1)OC2 (some centres not stated) |  |  |  |  |  |  |  |  | half-life [8]: 600 to 2700 min
13 | COc1ccc2c(c1)COP(=O)(OC[C@@H]1C=C[C@H](n3cnc4c(N)ncnc43)O1)O2 (some centres not stated) |  |  |  |  |  |  |  |  | half-life [8]: 600 to 2700 min
14 | Cc1cccc2c1OP(=O)(OC[C@@H]1C=C[C@H](n3cnc4c(=O)[nH]cnc43)O1)OC2 (some centres not stated) |  |  |  |  |  |  |  |  | half-life [8]: 600 to 2700 min
15 | NC(=O)c1nc(F)c[nH]c1=O |  | > 250 |  |  | > 250 |  | > 250 |  | Stability (MDCK [24]): 65%; Drug metabolism (MDCK [25]): Metabolite_Notdetected; Drug metabolism (MDCK [26]): Metabolite_Detected
16 | NC(=O)c1nccn([C@@H]2O[C@H](CO)[C@@H](O)[C@H]2O)c1=O | 4.72 | > 250 | 4.28 | 4.62 | > 250 | 4.24 | > 250 |  | 
17 | NC(=O)c1nc(Br)cn([C@@H]2O[C@H](CO)[C@@H](O)[C@H]2O)c1=O | < 3.60 | > 250 | < 3.60 | < 3.60 | > 250 | < 3.60 | > 250 |  | 
18 | CCCCCCCCCC(=O)Oc1ccc(COP(=O)(OCc2ccc(OC(=O)CCCCCCCCC)cc2)OP(=O)(O)OP(=O)(O)OC[C@H]2O[C@@H](n3ccnc(C(N)=O)c3=O)[C@H](O)[C@@H]2O)cc1.CCN(CC)CC.CCN(CC)CC | 5.62 | 16 | 5.44 | 5.59 | 13 | 5.59 | 30 | 3.90 to 4.31 | Drug metabolism (MDCK [13]): Metabolite_Detected; Drug metabolism (MDCK [14]): Metabolite_Detected; Drug metabolism [15]: Metabolite_Detected; Drug metabolism [16]: Metabolite_Detected; Drug metabolism (MDCK [17]): Metabolite_Detected; pIC50 [11]: 3.90 to 4.31; Drug metabolism (MDCK [18]): Metabolite_Notdetected; Drug metabolism (Liver carboxylesterase [27]): Metabolite_Detected
19 | Cc1cccc2c1OP(=O)(OC[C@H]1O[C@@H](n3ccnc(C(N)=O)c3=O)[C@H](O)[C@@H]1O)OC2 (some centres not stated) | 3.87 | > 400 | < 3.40 | 3.75 | > 400 | 3.55 | > 400 |  | t1/2 [23]: 1.2 h
20 | NC(=O)c1nc(F)cnc1O | 5.08 |  | 4.59 | 5.05 |  | 4.62 |  |  | inhibition (Influenza A virus [28]): Active; inhibition (Influenza A virus [29]): Active; inhibition (Influenza A virus [30]): inactive
